Results reported in patent US11731986B2 (Sanford Burnham Prebys Medical Discovery Institute, priority 2017, dated 2023).

Biological target: T1, human LMPTP-A (Homo sapiens, UniProt P24666)
T1 sequence (P24666 1-158): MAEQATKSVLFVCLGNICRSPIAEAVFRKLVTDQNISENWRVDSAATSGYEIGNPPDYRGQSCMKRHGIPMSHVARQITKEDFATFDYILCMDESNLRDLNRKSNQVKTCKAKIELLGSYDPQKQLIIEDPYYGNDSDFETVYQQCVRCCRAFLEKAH
Test: Enzyme Assay of Inhibition of LMPTP-A (phosphatase assay, OMFP or pNPP substrate)
Format: biochemical
Conditions: Bis-Tris pH 6.0, 37° C.
Outline: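 Buffer 50 mM Bis-Tris pH 6.0, 1 mM DTT, 0.01% Triton X-100, 37 °C; OMFP read continuously (485/525 nm) or pNPP stopped with NaOH, 405 nm. IC50 from concentration vs % activity. Selectivity: 40 μM compound with 0.4 mM OMFP or 5 mM pNPP; reversibility: 50 nM enzyme, 10 μM compound, 5 min, 100× dilution.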

Row | SMILES | IC50
1 | CCN(CC)C(=O)c1ccc(-c2cc(Nc3ccc(NCCOC)cc3)c3cnccc3n2)cc1 [N,N-Diethyl-4-(4-(4-(2-methoxyethylamino)phenylamino)-1,6-naphthyridin-2-yl)benzamide] | 1 to 20 µM
2 | CCN(CC)C(=O)c1ccc(-c2cc(NCCCN3CCCCC3)c3cnccc3n2)c(C(N)=O)c1 [N1,N1-diethyl-4-(4-((3-(piperidin-1-yl)propyl)amino)-1,6-naphthyridin-2-yl)isophthalamide] | 1 to 20 µM
